According to US20240317735A1, “HYDROISOQUINOLINE OR HYDRONAPHTHYRIDINE COMPOUNDS FOR THE TREATMENT OF AUTOIMMUNE DISEASE” (Hoffmann-La Roche Inc., priority 2020, published 2024):

Key:
[1] = Human microsome stability assay; format: in vitro ADME; conditions: for Clearance of Human microsome: 1 μM test compound, 0.5 mg/mL liver microsomal protein, 37° C., pH 7.4; for human liver microsome stability (in words): qualitative statement
Procedure: The human microsomal stability assay is used for early assessment of metabolic stability of a test compound in human liver microsomes.
Human liver microsomes (Cat. NO.: 452117, Corning, USA; Cat. NO.: H2610, Xenotech, USA) were preincubated with test compound for 10 minutes at 37° C. in 100 mM potassium phosphate buffer, pH 7.4. The reactions were initiated by adding NADPH regenerating system. The final incubation mixtures contained 1 μM test compound, 0.5 mg/mL liver microsomal protein, 1 mM MgCl2, 1 mM NADP, 1 unit/mL isocitric dehydrogenase and 6 mM isocitric acid in 100 mM potassium phosphate buffer, pH 7.4. After incubation times of 0, 3, 6, 9, 15 and 30 minutes at 37° C., 300 μL of cold acetonitrile (including internal standard) was added to 100 μL incubation mixture to terminate the reaction. Following precipitation and centrifugation, the amount of compound remaining in the samples were determined by LC-MS/MS. Controls of no NADPH regenerating system at zero and 30 minutes were also prepared and analyzed.

TLR9 = target: T1, TLR9 (Homo sapiens, UniProt Q9NR96); conditions: qualitative statement on compounds of WO2018047081; cited from earlier work
T1 sequence (Q9NR96 26-1032): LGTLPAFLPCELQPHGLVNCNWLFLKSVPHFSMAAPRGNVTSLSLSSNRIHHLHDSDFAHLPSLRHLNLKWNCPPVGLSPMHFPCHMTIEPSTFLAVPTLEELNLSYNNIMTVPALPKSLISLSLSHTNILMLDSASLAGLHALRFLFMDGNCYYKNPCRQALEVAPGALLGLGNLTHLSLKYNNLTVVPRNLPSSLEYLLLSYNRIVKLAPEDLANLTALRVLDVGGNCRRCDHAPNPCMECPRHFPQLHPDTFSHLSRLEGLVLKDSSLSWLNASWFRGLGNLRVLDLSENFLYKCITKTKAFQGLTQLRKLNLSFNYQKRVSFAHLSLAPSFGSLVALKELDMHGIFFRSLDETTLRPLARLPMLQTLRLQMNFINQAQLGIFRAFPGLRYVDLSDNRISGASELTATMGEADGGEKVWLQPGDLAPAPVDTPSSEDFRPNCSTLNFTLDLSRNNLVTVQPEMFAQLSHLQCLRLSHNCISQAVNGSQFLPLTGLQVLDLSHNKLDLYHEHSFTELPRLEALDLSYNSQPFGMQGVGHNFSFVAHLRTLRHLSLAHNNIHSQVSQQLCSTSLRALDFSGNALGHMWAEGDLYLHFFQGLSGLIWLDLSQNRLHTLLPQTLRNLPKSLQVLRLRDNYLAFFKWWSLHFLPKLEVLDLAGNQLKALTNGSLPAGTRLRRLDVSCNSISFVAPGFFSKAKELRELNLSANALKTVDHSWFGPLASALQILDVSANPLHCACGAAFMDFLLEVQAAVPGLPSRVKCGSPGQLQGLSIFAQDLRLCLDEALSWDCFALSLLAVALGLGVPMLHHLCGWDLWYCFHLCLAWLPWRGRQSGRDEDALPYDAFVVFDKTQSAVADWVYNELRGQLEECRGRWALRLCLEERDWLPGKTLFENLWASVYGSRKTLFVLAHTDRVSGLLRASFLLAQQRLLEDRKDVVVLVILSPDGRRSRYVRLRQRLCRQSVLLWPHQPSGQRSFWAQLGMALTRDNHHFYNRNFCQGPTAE

Row | Structure (SMILES) | Clearance of Human microsome [1] [mL/min/kg] | human liver microsome stability (in words) [1] | TLR9 activity (in words) (TLR9)
1 | C[C@H]1CN(c2ccnc3c2cnn3C)Cc2ccc(N3C[C@@H](N)[C@](C)(O)C3)cc21 [Example 36, (3R,4R)-4-amino-3-methyl-1-[(4R)-4-methyl-2-(1-methylpyrazolo[3,4-b]pyridin-4-yl)-3,4-dihydro-1H-isoquinolin-6-yl]pyrrolidin-3-ol] | 6.2 | – | –
2 | C[C@H]1CN(c2ccnc3c2cnn3C)Cc2ccc(N3CC[N+](C)(C)CC3)cc21.[Cl-] [Example 39, (4R)-6-(4,4-dimethylpiperazin-4-ium-1-yl)-4-methyl-2-(1-methylpyrazolo[3,4-b]pyridin-4-yl)-3,4-dihydro-1H-isoquinoline chloride] | 6.2 | – | –
3 | Cc1cc(N2CCc3c(c(C)nn3CC34CCC(NC(=O)[C@@H]5COCCN5)(CC3)CC4)C2)c2cnn(C)c2n1 [Example N8, reference compound] | 16.3 | poor human liver microsome stability | much lower TLR9 activity
4 | Cc1cc(N2CCc3c(c(C)nn3CC34CCC(N(C)C5CCC5)(CC3)CC4)C2)c2cnn(C)c2n1 [Example N79, reference compound] | 18.2 | poor human liver microsome stability | best TLR9 activity
